Source: PubChem BioAssay (NCI)
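48-hour exposure; five concentrations; linearly interpolated endpoints. GI50 marks 50% less growth. TGI: total growth inhibition.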

Assays:
Test in all cases: NCI tumour cell line growth inhibition, 48 h
[1] = test system: CCRF-CEM leukemia
[2] = test system: MOLT-4 leukemia
[3] = test system: U251 CNS
[4] = test system: 786-0 renal
[5] = test system: HOP-62 NSCLC
[6] = test system: HL-60(TB) leukemia
[7] = test system: A498 renal
[8] = test system: DU-145 prostate
[9] = test system: T-47D breast
[10] = test system: SR leukemia
[11] = test system: SK-MEL-28 melanoma
[12] = test system: OVCAR-3 ovarian
[13] = test system: M14 melanoma
[14] = test system: ACHN renal
[15] = test system: NCI-H226 lung
[16] = test system: MCF7 breast
[17] = test system: BT-549 breast
[18] = test system: HCC-2998 colon
[19] = test system: SK-MEL-2 melanoma
[20] = test system: COLO 205 colon
[21] = test system: UACC-257 melanoma
[22] = test system: RPMI-8226 leukemia
[23] = test system: SW-620 colon
[24] = test system: HT29 colon
[25] = test system: OVCAR-4 ovarian
[26] = test system: NCI-H460 lung
[27] = test system: NCI-H522 lung
[28] = test system: SK-MEL-5 melanoma
[29] = test system: SF-295 CNS
[30] = test system: UACC-62 melanoma
[31] = test system: K-562 leukemia
[32] = test system: SN12C renal
[33] = test system: MALME-3M melanoma
[34] = test system: LOX IMVI melanoma
[35] = test system: HCT-116 colon
[36] = test system: HCT-15 colon
[37] = test system: RXF 393 renal
[38] = test system: TK-10 renal
[39] = test system: IGROV1 ovarian
[40] = test system: OVCAR-8 ovarian
[41] = test system: SNB-75 CNS
[42] = test system: MDA-MB-435
[43] = test system: HS 578T breast
[44] = test system: PC-3 prostate
[45] = test system: CAKI-1 renal
[46] = test system: UO-31 renal
[47] = test system: SF-539 CNS
[48] = test system: A549 NSCLC
[49] = test system: MDA-MB-231 breast
[50] = test system: OVCAR-5 ovarian
[51] = test system: SK-OV-3 ovarian
[52] = test system: SNB-19 CNS
[53] = test system: KM12 colon
[54] = test system: NCI/ADR-RES ovarian
[55] = test system: NCI-H23 lung
[56] = test system: SF-268 CNS

Cn1cc(C2=C(c3cn(C)c4ccc(N)cc34)C(=O)NC2=O)c2ccccc21
GI50 [1]: 6.95 µM | TGI [1]: > 25 µM | GI50 [2]: 10.2 µM | TGI [2]: > 25 µM | GI50 [3]: 8.96 µM | TGI [3]: > 25 µM | GI50 [4]: 19.7 µM | TGI [4]: > 25 µM | GI50 [5]: 9.59 µM | TGI [5]: > 25 µM | GI50 [6]: 7.41 µM | TGI [6]: > 25 µM | GI50 [7]: 9.28 µM | TGI [7]: > 25 µM | GI50 [8]: 12.3 µM | TGI [8]: > 25 µM | GI50 [9]: 18.8 µM | TGI [9]: > 25 µM | GI50 [10]: 2.05 µM | TGI [10]: > 25 µM | GI50 [11]: 17.2 µM | TGI [11]: > 25 µM | GI50 [12]: 4.79 µM | TGI [12]: 16 µM | GI50 [13]: 13.9 µM | TGI [13]: > 25 µM | GI50 [14]: 13.9 µM | TGI [14]: > 25 µM | GI50 [15]: > 17.6 µM | TGI [15]: > 25 µM | GI50 [16]: 4.76 µM | TGI [16]: > 25 µM | GI50 [17]: 7.12 µM | TGI [17]: > 25 µM | GI50 [18]: > 25 µM | TGI [18]: > 25 µM | GI50 [19]: 8.46 µM | TGI [19]: > 25 µM | GI50 [20]: 6 µM | TGI [20]: > 20.5 µM | GI50 [21]: > 25 µM | TGI [21]: > 25 µM | GI50 [22]: > 16.5 µM | TGI [22]: > 25 µM | GI50 [23]: 5 µM | TGI [23]: > 25 µM | GI50 [24]: 5.82 µM | TGI [24]: > 25 µM | GI50 [25]: > 20.2 µM | TGI [25]: > 25 µM | GI50 [26]: 9.53 µM | TGI [26]: > 25 µM | GI50 [27]: 6.78 µM | TGI [27]: > 25 µM | GI50 [28]: 6.91 µM | TGI [28]: > 25 µM | GI50 [29]: 6.83 µM | TGI [29]: > 22.2 µM | GI50 [30]: 13.1 µM | TGI [30]: > 25 µM | GI50 [31]: 1.92 µM | TGI [31]: > 25 µM | GI50 [32]: 13.4 µM | TGI [32]: > 25 µM | GI50 [33]: > 25 µM | TGI [33]: > 25 µM | GI50 [34]: 12.2 µM | TGI [34]: > 25 µM | GI50 [35]: 6.65 µM | TGI [35]: > 25 µM | GI50 [36]: 4.52 µM | TGI [36]: > 25 µM | GI50 [37]: 8.13 µM | TGI [37]: > 25 µM | GI50 [38]: 23.1 µM | TGI [38]: > 25 µM | GI50 [39]: 23.8 µM | TGI [39]: > 25 µM | GI50 [40]: 17 µM | TGI [40]: > 25 µM | GI50 [41]: 1.63 µM | TGI [41]: > 21.2 µM | GI50 [42]: 0.729 µM | TGI [42]: > 25 µM | GI50 [43]: 5.3 µM | TGI [43]: > 25 µM | GI50 [44]: 9 µM | TGI [44]: > 25 µM | GI50 [45]: 4.85 µM | TGI [45]: > 25 µM | GI50 [46]: 3.6 µM | TGI [46]: > 25 µM | GI50 [47]: 6.14 µM | TGI [47]: 24.4 µM | GI50 [48]: 12.5 µM | TGI [48]: > 25 µM | GI50 [49]: > 25 µM | TGI [49]: > 25 µM | GI50 [50]: > 25 µM | TGI [50]: > 25 µM | GI50 [51]: 8.99 µM | TGI [51]: > 25 µM | GI50 [52]: > 25 µM | TGI [52]: > 25 µM | GI50 [53]: 6.4 µM | TGI [53]: > 25 µM | GI50 [54]: 10.3 µM | TGI [54]: > 25 µM | GI50 [55]: 15.3 µM | TGI [55]: > 25 µM | GI50 [56]: 15.6 µM | TGI [56]: > 25 µM
